# Laboratory results from patent US6355464B1, “M. tuberculosis RNA polymerase alpha subunit” (Anadys Pharmaceuticals, Inc., priority 1996, dated 2002).
# Target: M. tuberculosis RNA polymerase (Mycobacterium tuberculosis, UniProt P9WGY7+P9WGY9+P9WGZ1)
# Experiment: In vitro (cell-free) high-throughput transcription screen with reconstituted RNA polymerase and T101 promoter template
# Format: biochemical
# Conditions: rifampicin at 30 nM; control compound; TCA-precipitated [α-32P]-UTP-labelled RNA, 30 min at 25° C.
# Experimental: High-throughput screens for anti-tuberculosis agents may be performed using either an in vitro or in vivo format. In either case, the ability of test compounds to inhibit M. tuberculosis RNA polymerase-driven transcription of M. tuberculosis promoters is tested. Typically, a strong promoter such as T101 is used for the test reactions. The sequence of the T101 promoter is: identified by SEQ. ID. NO. 15 and read as follows.
# The following procedure is used for cell-free high-throughput screening. A Tomtec Quadra 96-well pipetting station is used to add the reaction components to polypropylene 96-well dishes. 5 μl aliquots of test compounds dissolved in DMSO (or DMSO alone as a control) are added to wells. This is followed by 20 μl of the RNA polymerase mixture, which consists of: 10 mM DTT, 200 mM KCl, 10 mM Mg^+2, 1.5 μM bovine serum albumin, and 0.25 μg reconstituted RNA polymerase. […]
# After incubation for 30 min at 25° C., the reaction is stopped by addition of 150 μl 10% trichloroacetic acid (TCA). […] The wells of the microtiter plate and the filter are washed twice with 5% TCA and bound radioactivity is determined usinjg a Wallac microbeta 1450 scintillation counter. Inhibitory activity due to the test compound is calculated according to the formula: [formula] […]
# Sequence of M. tuberculosis RNA polymerase (P9WGY7 whole entry, looked up): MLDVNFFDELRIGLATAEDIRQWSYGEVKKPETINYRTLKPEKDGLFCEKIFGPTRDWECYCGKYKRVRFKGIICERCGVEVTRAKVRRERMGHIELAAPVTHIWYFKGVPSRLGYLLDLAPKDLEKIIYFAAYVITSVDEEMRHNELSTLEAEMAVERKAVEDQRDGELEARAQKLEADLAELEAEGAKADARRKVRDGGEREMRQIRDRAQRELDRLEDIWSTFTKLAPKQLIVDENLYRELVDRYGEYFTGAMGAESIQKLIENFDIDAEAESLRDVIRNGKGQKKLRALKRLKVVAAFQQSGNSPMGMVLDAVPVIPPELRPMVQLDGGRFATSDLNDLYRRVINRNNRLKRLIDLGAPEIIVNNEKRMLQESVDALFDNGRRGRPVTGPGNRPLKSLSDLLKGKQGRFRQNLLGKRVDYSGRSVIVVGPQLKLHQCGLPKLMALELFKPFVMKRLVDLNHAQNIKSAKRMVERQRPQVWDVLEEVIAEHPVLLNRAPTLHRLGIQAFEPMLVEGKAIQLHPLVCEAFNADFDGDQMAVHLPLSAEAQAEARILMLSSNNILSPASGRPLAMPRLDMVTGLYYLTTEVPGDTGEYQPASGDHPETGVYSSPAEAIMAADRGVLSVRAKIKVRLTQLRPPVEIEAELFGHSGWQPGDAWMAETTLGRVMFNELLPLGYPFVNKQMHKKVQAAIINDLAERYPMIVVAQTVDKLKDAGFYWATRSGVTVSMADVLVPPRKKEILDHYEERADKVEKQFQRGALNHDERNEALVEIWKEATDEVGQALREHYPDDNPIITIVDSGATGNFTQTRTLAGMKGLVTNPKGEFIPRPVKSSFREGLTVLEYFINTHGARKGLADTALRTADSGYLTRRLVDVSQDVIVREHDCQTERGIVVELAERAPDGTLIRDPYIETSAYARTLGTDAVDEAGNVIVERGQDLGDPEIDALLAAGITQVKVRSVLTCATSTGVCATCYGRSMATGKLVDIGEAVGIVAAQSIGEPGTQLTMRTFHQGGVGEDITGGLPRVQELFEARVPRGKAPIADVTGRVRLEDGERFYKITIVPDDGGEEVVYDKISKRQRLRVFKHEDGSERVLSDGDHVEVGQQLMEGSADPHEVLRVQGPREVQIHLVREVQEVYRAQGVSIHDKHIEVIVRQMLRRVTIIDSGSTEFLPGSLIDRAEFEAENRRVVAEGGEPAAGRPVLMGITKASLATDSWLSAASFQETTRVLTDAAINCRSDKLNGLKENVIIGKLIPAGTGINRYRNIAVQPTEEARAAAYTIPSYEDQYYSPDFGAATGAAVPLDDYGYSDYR
# Sequence of M. tuberculosis RNA polymerase (P9WGY9 whole entry, looked up): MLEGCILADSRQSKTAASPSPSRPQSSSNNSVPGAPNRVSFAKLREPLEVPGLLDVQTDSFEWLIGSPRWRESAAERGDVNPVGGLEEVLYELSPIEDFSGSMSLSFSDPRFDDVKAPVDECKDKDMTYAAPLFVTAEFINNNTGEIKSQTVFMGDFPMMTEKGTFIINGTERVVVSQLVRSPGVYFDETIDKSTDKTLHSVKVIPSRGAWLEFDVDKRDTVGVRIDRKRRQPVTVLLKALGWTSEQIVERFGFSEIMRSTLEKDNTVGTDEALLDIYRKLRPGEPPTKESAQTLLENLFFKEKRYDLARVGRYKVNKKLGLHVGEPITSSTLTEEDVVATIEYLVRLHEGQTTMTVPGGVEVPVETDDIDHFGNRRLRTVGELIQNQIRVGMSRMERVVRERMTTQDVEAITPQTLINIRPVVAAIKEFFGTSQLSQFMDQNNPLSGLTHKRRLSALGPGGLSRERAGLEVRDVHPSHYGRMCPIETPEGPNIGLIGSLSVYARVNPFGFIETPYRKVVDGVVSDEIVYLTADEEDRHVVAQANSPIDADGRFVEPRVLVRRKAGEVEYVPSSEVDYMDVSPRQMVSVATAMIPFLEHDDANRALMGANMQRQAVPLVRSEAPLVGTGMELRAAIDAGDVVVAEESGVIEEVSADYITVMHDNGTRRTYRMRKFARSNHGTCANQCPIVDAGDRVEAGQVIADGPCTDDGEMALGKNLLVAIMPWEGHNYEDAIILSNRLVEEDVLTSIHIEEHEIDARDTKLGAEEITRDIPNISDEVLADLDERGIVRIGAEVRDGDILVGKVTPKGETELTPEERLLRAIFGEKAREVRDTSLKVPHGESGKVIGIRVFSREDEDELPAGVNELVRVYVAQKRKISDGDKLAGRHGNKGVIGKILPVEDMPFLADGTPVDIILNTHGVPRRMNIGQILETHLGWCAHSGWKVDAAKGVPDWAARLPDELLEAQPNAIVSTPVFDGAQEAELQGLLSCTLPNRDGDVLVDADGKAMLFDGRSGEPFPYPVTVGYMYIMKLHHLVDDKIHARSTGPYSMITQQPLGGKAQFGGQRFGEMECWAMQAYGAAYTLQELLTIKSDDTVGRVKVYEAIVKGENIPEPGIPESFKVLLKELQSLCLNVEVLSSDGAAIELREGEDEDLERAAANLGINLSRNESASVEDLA
# Sequence of M. tuberculosis RNA polymerase (P9WGZ1 whole entry, looked up): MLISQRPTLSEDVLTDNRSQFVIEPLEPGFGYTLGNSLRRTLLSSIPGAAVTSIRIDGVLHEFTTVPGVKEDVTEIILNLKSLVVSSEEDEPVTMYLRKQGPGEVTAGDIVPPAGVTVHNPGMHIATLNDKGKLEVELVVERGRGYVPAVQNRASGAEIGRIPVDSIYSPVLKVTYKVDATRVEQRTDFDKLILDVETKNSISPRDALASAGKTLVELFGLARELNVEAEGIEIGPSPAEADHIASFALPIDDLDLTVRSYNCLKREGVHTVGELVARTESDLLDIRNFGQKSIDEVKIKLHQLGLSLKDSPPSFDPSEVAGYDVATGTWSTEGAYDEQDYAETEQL
structure (smiles),measurement,value
CO[C@H]1/C=C/O[C@@]2(C)Oc3c(C)c(O)c4c(O)c(c(/C=N/N5CCN(C)CC5)c(O)c4c3C2=O)NC(=O)/C(C)=C\C=C\[C@H](C)[C@H](O)[C@@H](C)[C@@H](O)[C@@H](C)[C@H](OC(C)=O)[C@@H]1C [rifampicin],inhibition of transcription,50-75%
